{"source": "patent US20210259954A1", "about": "“CILIA-TARGETING NANOPARTICLES” (Chapman University, priority 2019, published 2021)", "key": {"[1]": {"tested_on": "Tie2Cre⋅Pkd2^flox/flox mice", "test": "Working heart perfusion system, hearts of treated Pkd2 mice (Example 1)", "format": "in vivo, mouse", "conditions": "for CO, cardiac output / EDPVR, end-diastolic pressure volume relation / EF, ejection fraction / ESPVR, end-systolic pressure volume relation / HR, heart rate / LV EDP, end-diastolic pressure / LV EDV, end-diastolic volume / LV ESP, end-systolic pressure / LV ESV, end-systolic volume / LV Pmax, systolic pressure / SV, stroke volume / SW, stroke work / dP/dtmax, maximum rate of LV pressure rise / dP/dtmin, maximum rate of LV pressure fall: Pkd2 heart", "method": "One-week-old Tie2Cre⋅Pkd2^WT/WT (with cre activation; control group) or Tie2Cre⋅Pkd2^flox/flox (without cre activation; control group), and Tie2Cre⋅Pkd2^flox/flox (with cre activation; experimental group) mice were injected intra-peritoneally with 5 μg/μL tamoxifen every day for five consecutive days. […] The mice were next injected with PBS (control), CT-DAu-NPs or CT-PLGA-NPs (0.5 to 2.0 mg/kg body weight) via intravenous (IV) injections. […] The mice were treated every 72 hours with different NPs for 8 weeks.\nWorking Heart Perfusion System. To study heart function independently from neuronal innervation or humoral effect, ex vivo heart parameters were collected using a mouse working heart system from Emka Technologies. This system collected data of the cardiac contractile strength, electrical heart propagation (ECG; electrocardiogram) and other cardiac functions, including the heart rate (HR), left ventricle pressure (LVP), left ventricular volume (LVV), left atrial pressure (LAP), aortic out flow (AOF), stroke volume (SV), cardiac output (CO), end diastolic/systolic volume (Edv-Esv), rate of left atrial pressure raise (+dp/dt) and fall (−dt/dt), preload, afterload, and main aortic pressure. Heparin (100 units, IP), xylazine (10-15 mg/kg, IP), and ketamine (200-350 mg/kg, IP) were used to prevent blood coagulation in the coronary arteries and to anesthetize the mice. After cannulation, the heart was perfused with Krebs-Ringer superfusion solution (in mM: 125 NaCl, 2.5 KCl, 1.25 NaH2PO4, 2 CaCl2, 1 MgCl2, 25 NHCO3 and 25 glucose). Throughout the experiment, the solution was continuously bubbled with carbogen (95% O2 and 5% CO2) to reach 7.4 pH at 38° C. Stress tests were performed in the heart by perfusing epinephrine (4 μg/L) or diltiazem (0.08 μg/L). The cardiac function was plotted in a loop diagram showing the LVV-LVP relationship (volume-pressure loop)."}, "[2]": {"tested_on": "primary cilia", "test": "Ca2+ and NO imaging under fluid shear stress (Example 1)", "format": "cell-based", "conditions": "fluid shear 0.5 dyn/cm^2, vs corresponding controls", "description": "Ca^2+ and NO Imaging. For monolayer cell populations, intracellular measurements were obtained. […] After washed to remove excess Fura-2 AM, cytosolic Ca^2+ images were captured every second by recording Ca^2+-bound Fura-2 AM excitation fluorescence at 340/380 nm and emission at 510 nm. For intracellular nitric oxide (NO) measurements, the cells were incubated for 30 minutes at 37° C. with 20 μM DAF-FM (Cayman Chemicals). NO was then measured every second at the excitation and emission wavelengths of 495 and 515 nm, respectively. The cells were placed in PBS during the experiments and observed with a Nikon Eclipse Ti microscope. Fluid shear stress was then applied to cells through InsTech P720 peristaltic pumps with an inlet and outlet setup. The fluid was perfused through cell monolayers at a sub-minimal shear stress of 0.5 dyn/cm^2.\nIn single-cell studies, cells were grown on 2% Formvar® and transfected with the Ca^2+ fluorescence reporter 5HT6-mCherry-G-GECO1.0 (Addgene) using the JetPrime transfection reagent (Polyplus transfection). The shear stress ranged from 0.01-1.0 dyn/cm^2 and was accurately measured and controlled at all times. […] For these experiments, none of the CT-NPs contained AF594 dye to avoid interference with the mCherry signal. Confocal laser scanning microscopy in fast-scan mode was used to avoid potential excessive photo bleaching. […]"}, "[3]": {"test": "Pharmacokinetics of fenoldopam in mice (Example 1)", "format": "in vivo, mouse", "conditions": "30-minute infusion vs bolus of fenoldopam-loaded CTNDDS", "description": "The pharmacokinetics of different NPs treated mice were studied. […] All drugs were extracted from plasma samples and HPLC analysis performed. In the biodistribution studies, whole organs from the fluorescent-labelled NPs treated mice (heart, kidney, liver, spleen and lung) were collected, homogenized and measured for fluorescence intensity to assess the amount of NP distribution in different organs at 24- and 72-hours after treatments. For the in vivo toxicity studies, 200 μL of blood samples were collected from different treatments (PBS, CT-DAu-NPs or CT-PLGA-NPs). Biochemistry was performed using biochemical analyzer (VetScan VS2)."}, "[4]": {"tested_on": "LLC-PK1 cells", "test": "Intracellular and ciliary Ca2+ and NO imaging under flow or magnetic field (Example 2)", "format": "cell-based, porcine", "conditions": "5HT6-mCherry-G-GECO1.0, single cell single cilium", "description": "Cells were grown as monolayer on glass-bottomed plates to enable live microscopy imaging. […] For intracellular NO measurements, cells were loaded with 20 μM DAF-FM (Cayman Chemical) for 30 minutes at 37° C. […] Fluid shear stress was then applied to cells through […] peristaltic pumps with an inlet and outlet setup. The fluid was perfused through cell monolayers at a sub-minimal shear stress of 0.5 dyn/cm^2. […] An alnico cylindrical magnet (VWR International, PA) was used to oscillate a primary cilium. This 100-gram AlNiCo magnet produced a permanent magnetic field of 1.35 T. Once a cilium was placed on the specimen holder and in the plane of view, the magnet was mounted on the top of an inverted Nikon Ti-E microscope. The magnet was then mechanically moved with an oscillation frequency of 1.6 Hz. The movement of cilia by the magnetic field was continuously recorded for the duration of the experiment. To examine how much force the magnetic field generated onto a cilium, we calculated the movement of cilia in response to the oscillating magnetic field (Supplement). […] The shear stress ranged from 0.01 to 1.0 dyn/cm^2 and was accurately measured and controlled at all times. […] Approximately 15-20 cilia were analysed for each treatment using different fluorescence filters. […] The GFP/mCherry ratios were also calculated using Nikon tracking software."}, "[5]": {"tested_on": "p-ERK", "test": "Immunoblotting of phosphorylated ERK", "format": "cell-based", "description": "Immunoblotting. […] Samples were kept on ice during sonication to prevent overheating. Samples were then centrifuged at 15,000 rpm for 20 min, and the supernatants were collected and subjected to protein quantification. The PAGE (polyacrylamide gel electrophoresis) on 6-10% SDS gels was performed followed by semi-dry transfer to PVDF membranes using a Bio-Rad Trans-Blot Turbo Transfer System and detection using antibodies against t-ERK (1:1,000), p-ERK (1:1,000), NOS (1:200), and GAPDH (1:2,000) (Cell Signaling Technology). Blots were scanned with both calorimetry to image molecular markers and chemiluminescence to capture the protein signal intensity using a Bio-Rad imager."}}}
{"smiles": "Oc1ccc(C2CNCCc3c2cc(O)c(O)c3Cl)cc1", "note": "(stereo not shown) [Fenoldopam, fenoldopam]", "values": [{"measurement": "CO, cardiac output", "setting": "[1]; diltiazem stress", "result": "1873 ± 70", "unit": "µL/min"}, {"measurement": "EDPVR, end-diastolic pressure volume relation", "setting": "[1]; diltiazem stress", "result": "0.14 ± 0.01", "unit": "mmHg/μL"}, {"measurement": "EF, ejection fraction", "setting": "[1]; diltiazem stress", "result": "51.6 ± 1.4", "unit": "%"}, {"measurement": "ESPVR, end-systolic pressure volume relation", "setting": "[1]; diltiazem stress", "result": "2.3 ± 0.1", "unit": "mmHg/μL"}, {"measurement": "HR, heart rate", "setting": "[1]; diltiazem stress", "result": "98 ± 9", "unit": "beat/min"}, {"measurement": "LV EDP, end-diastolic pressure", "setting": "[1]; diltiazem stress", "result": "5.7 ± 0.2", "unit": "mmHg"}, {"measurement": "LV EDV, end-diastolic volume", "setting": "[1]; diltiazem stress", "result": "40.3 ± 0.8", "unit": "µL"}, {"measurement": "LV ESP, end-systolic pressure", "setting": "[1]; diltiazem stress", "result": "33.5 ± 0.5", "unit": "mmHg"}, {"measurement": "LV ESV, end-systolic volume", "setting": "[1]; diltiazem stress", "result": "19.5 ± 0.6", "unit": "µL"}, {"measurement": "LV Pmax, systolic pressure", "setting": "[1]; diltiazem stress", "result": "44.7 ± 0.7", "unit": "mmHg"}, {"measurement": "SV, stroke volume", "setting": "[1]; diltiazem stress", "result": "20.8 ± 0.8", "unit": "µL"}, {"measurement": "SW, stroke work", "setting": "[1]; diltiazem stress", "result": "812 ± 29", "unit": "mmHg · μL"}, {"measurement": "dP/dtmax, maximum rate of LV pressure rise", "setting": "[1]; diltiazem stress", "result": "4020 ± 643", "unit": "mmHg/s"}, {"measurement": "dP/dtmin, maximum rate of LV pressure fall", "setting": "[1]; diltiazem stress", "result": "−1537 ± 97", "unit": "mmHg/s"}, {"measurement": "CO, cardiac output", "setting": "[1]; epinephrine stress", "result": "6810 ± 347", "unit": "µL/min"}, {"measurement": "EDPVR, end-diastolic pressure volume relation", "setting": "[1]; epinephrine stress", "result": "0.16 ± 0.01", "unit": "mmHg/μL"}, {"measurement": "EF, ejection fraction", "setting": "[1]; epinephrine stress", "result": "77.7 ± 2.0", "unit": "%"}, {"measurement": "ESPVR, end-systolic pressure volume relation", "setting": "[1]; epinephrine stress", "result": "9.7 ± 0.9", "unit": "mmHg/μL"}, {"measurement": "HR, heart rate", "setting": "[1]; epinephrine stress", "result": "219 ± 44", "unit": "beat/min"}, {"measurement": "LV EDP, end-diastolic pressure", "setting": "[1]; epinephrine stress", "result": "6.4 ± 0.5", "unit": "mmHg"}, {"measurement": "LV EDV, end-diastolic volume", "setting": "[1]; epinephrine stress", "result": "39.9 ± 0.1", "unit": "µL"}, {"measurement": "LV ESP, end-systolic pressure", "setting": "[1]; epinephrine stress", "result": "63.2 ± 0.3", "unit": "mmHg"}, {"measurement": "LV ESV, end-systolic volume", "setting": "[1]; epinephrine stress", "result": "8.9 ± 0.8", "unit": "µL"}, {"measurement": "LV Pmax, systolic pressure", "setting": "[1]; epinephrine stress", "result": "84.3 ± 0.4", "unit": "mmHg"}, {"measurement": "SV, stroke volume", "setting": "[1]; epinephrine stress", "result": "31.1 ± 0.7", "unit": "µL"}, {"measurement": "SW, stroke work", "setting": "[1]; epinephrine stress", "result": "2417 ± 28", "unit": "mmHg · μL"}, {"measurement": "dP/dtmax, maximum rate of LV pressure rise", "setting": "[1]; epinephrine stress", "result": "16864 ± 85", "unit": "mmHg/s"}, {"measurement": "dP/dtmin, maximum rate of LV pressure fall", "setting": "[1]; epinephrine stress", "result": "−3843 ± 277", "unit": "mmHg/s"}, {"measurement": "CO, cardiac output", "setting": "[1]; vehicle", "result": "3486 ± 81", "unit": "µL/min"}, {"measurement": "EDPVR, end-diastolic pressure volume relation", "setting": "[1]; vehicle", "result": "0.13 ± 0.01", "unit": "mmHg/μL"}, {"measurement": "EF, ejection fraction", "setting": "[1]; vehicle", "result": "62.5 ± 0.2", "unit": "%"}, {"measurement": "ESPVR, end-systolic pressure volume relation", "setting": "[1]; vehicle", "result": "4.4 ± 0.1", "unit": "mmHg/μL"}, {"measurement": "HR, heart rate", "setting": "[1]; vehicle", "result": "140 ± 24", "unit": "beat/min"}, {"measurement": "LV EDP, end-diastolic pressure", "setting": "[1]; vehicle", "result": "5.0 ± 0.1", "unit": "mmHg"}, {"measurement": "LV EDV, end-diastolic volume", "setting": "[1]; vehicle", "result": "40.0 ± 0.1", "unit": "µL"}, {"measurement": "LV ESP, end-systolic pressure", "setting": "[1]; vehicle", "result": "49.7 ± 1.5", "unit": "mmHg"}, {"measurement": "LV ESV, end-systolic volume", "setting": "[1]; vehicle", "result": "15.0 ± 0.1", "unit": "µL"}, {"measurement": "LV Pmax, systolic pressure", "setting": "[1]; vehicle", "result": "66.3 ± 2.0", "unit": "mmHg"}, {"measurement": "SV, stroke volume", "setting": "[1]; vehicle", "result": "24.9 ± 0.1", "unit": "µL"}, {"measurement": "SW, stroke work", "setting": "[1]; vehicle", "result": "1530 ± 20", "unit": "mmHg · μL"}, {"measurement": "dP/dtmax, maximum rate of LV pressure rise", "setting": "[1]; vehicle", "result": "7157 ± 211", "unit": "mmHg/s"}, {"measurement": "dP/dtmin, maximum rate of LV pressure fall", "setting": "[1]; vehicle", "result": "−1624 ± 24", "unit": "mmHg/s"}, {"measurement": "LVP/LVV abnormalities (P-V loops)", "setting": "[1]; Pkd2 hearts", "result": "Both CTNDDS but not fenoldopam-alone corrected these abnormalities"}, {"measurement": "arrhythmia (ECG)", "setting": "[1]; Pkd2 hearts, 8-week treatment", "result": "could be corrected with 8-week treatment of CTNDDS but not fenoldopam-alone"}, {"measurement": "NO biosynthesis", "setting": "[2]", "result": "significantly increased"}, {"measurement": "cytosolic Ca^2+", "setting": "[2]", "result": "significantly increased cytosolic Ca^2+"}, {"measurement": "total plasma concentration of fenoldopam (area under the curve, one hour)", "setting": "[3]", "result": "significantly higher"}, {"measurement": "intraciliary and cytosolic Ca^2+ signalling", "setting": "[4]", "result": "induced less of an increase in the intraciliary Ca^2+ signalling"}, {"measurement": "ERK phosphorylation", "setting": "[5]", "result": "increased ERK phosphorylation"}]}
